Experiments:
[1] = spontaneous isomerisation at room temperature monitored by HPLC; type: physicochemical
Description: The main difference between the spectra is the hypsochromic shift of the Compound 2 peak maxima of about 3 nm.

SMILES: CC/C=C\C/C=C\C/C=C/C=C/C=C/C=C/CCCC(=O)O [5E,7E,9E,11E,14Z,17Z-eicosahexaenoic acid]
- oxidative metabolism (HEK293 cells): appears to be oxidized through a monooxygenation system in HEK293 cells, and the products released to the medium
- elongation to a 22 carbon fatty acid (HEK293 cells; compared with AA or EPA): appeared not to be elongated efficiently to a 22 carbon fatty acid
- cellular uptake and assimilation into complex lipids (HEK293 cells; fractionation of organic extracts on aminopropyl columns): taken up by the cells and assimilated into complex lipids

SMILES: CC/C=C\C/C=C\C\C=C/C=C/C=C/C=C/CCCC(=O)O [Compound 1, 5E,7E,9E,11Z,14Z,17Z-eicosahexaenoic acid]
- stability (geometrical isomerisation) [1]: spontaneous room temperature conversion of Compound 1 to Compound 2
